In patent US7947284B2, “Purified component of blue-green algae and method of use” (Desert Lake Technologies, priority 2005, dated 2011):

Test system: CXCR4 expression on the human CD34+ cell line KG-1a
Assay: Fucoidan-induced CXCR4 expression on KG-1a cells (flow cytometry)
Assay type: cell-based
Conditions: KG-1a incubated with the agonist alone
Source text: Immunostaining for CXCR4 expression induced by L-selectin ligands: The binding of Fucoidan to L-selectin results in externalization of pre-made CXCR4 onto the cell surface, followed by internalization, creating a window in time for responsiveness to chemotactic factors. This system was used to examine whether AFA-W would compete with Fucoidan for binding to L-selectin on the leukocyte cell surface, and to assess whether it would block this functional effect from another L-selectin ligand. To do so, freshly purified human PBMC were resuspended in RPMI, and distributed in a series of round-bottom microwells. Fucoidan was added to one series of wells, AFA-W to another series, and a mixture of Fucoidan and AFA-W was added to the third series of wells. […] Cells were washed in phosphate-buffered saline containing azide, stained with CXCR4-PE using the staining protocol described above, fixed in formalin, and analyzed by flow cytometry.
The primitive cell line KG-1a is brightly positive for CD34 and for L-selectin, as evaluated by staining with the TQ1 monoclonal antibody. […]
The expression of CXCR4 receptors following exposure to fucoidan was evaluated on lymphocytes using flow cytometry.

Fucoidan
effect on expression of the chemokine receptor CXCR4: triggers the expression
